The target of test [1] is Histamine H3 receptor (Homo sapiens, UniProt Q9Y5N1).
Test [2] addresses 3',5'-cyclic-AMP phosphodiesterase 4D (Homo sapiens, UniProt Q08499). The class given is functional.
The target in test [3] is T1, Cholecystokinin receptor type A (Homo sapiens, UniProt P32238).
T1 sequence (P32238 whole entry): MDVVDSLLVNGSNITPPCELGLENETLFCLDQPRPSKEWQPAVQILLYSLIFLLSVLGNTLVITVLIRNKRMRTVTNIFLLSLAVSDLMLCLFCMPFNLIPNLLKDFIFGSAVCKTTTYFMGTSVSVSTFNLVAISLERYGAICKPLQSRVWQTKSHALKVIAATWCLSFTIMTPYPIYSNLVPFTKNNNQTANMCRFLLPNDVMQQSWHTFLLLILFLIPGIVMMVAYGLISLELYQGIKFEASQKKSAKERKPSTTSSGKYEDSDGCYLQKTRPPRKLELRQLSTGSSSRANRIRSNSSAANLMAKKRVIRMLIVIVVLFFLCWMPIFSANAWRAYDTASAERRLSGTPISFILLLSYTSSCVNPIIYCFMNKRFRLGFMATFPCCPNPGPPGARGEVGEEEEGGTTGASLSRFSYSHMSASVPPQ

The target of test [4] is T2, Alpha-2A adrenergic receptor (Homo sapiens, UniProt P08913).
T2 sequence (P08913 whole entry): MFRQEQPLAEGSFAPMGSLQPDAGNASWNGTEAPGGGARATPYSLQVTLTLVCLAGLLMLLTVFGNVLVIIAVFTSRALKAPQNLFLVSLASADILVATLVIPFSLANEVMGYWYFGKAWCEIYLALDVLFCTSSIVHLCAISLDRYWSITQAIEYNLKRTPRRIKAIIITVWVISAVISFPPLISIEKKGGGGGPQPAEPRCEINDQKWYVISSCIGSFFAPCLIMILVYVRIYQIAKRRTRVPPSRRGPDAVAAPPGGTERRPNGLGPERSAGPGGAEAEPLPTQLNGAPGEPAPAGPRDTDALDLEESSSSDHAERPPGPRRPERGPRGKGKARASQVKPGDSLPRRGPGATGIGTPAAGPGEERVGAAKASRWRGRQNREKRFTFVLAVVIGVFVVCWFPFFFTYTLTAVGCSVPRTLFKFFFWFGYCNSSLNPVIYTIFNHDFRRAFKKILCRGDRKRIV
Type of test: functional, cell-based.

The target of test [5] is 5-hydroxytryptamine receptor 2B (Homo sapiens, UniProt P41595). Type of test: functional, cell-based.
For test [6], the target named is T3, 5-hydroxytryptamine receptor 1A (Homo sapiens, UniProt P08908).
T3 sequence (P08908 whole entry): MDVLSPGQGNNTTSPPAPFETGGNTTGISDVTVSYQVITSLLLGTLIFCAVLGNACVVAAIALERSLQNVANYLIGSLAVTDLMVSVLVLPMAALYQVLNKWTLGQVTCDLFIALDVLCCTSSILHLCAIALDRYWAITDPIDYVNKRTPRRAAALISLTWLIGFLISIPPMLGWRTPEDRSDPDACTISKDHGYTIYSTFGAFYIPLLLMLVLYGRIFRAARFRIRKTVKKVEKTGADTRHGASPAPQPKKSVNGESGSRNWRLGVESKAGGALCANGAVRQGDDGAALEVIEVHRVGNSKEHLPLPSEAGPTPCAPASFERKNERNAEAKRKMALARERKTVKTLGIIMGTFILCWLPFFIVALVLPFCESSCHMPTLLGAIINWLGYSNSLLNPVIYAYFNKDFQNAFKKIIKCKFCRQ
The class given is functional, cell-based.
Note: assay procedure not described here.

Histamine H3 receptor, sequence (Q9Y5N1 whole entry): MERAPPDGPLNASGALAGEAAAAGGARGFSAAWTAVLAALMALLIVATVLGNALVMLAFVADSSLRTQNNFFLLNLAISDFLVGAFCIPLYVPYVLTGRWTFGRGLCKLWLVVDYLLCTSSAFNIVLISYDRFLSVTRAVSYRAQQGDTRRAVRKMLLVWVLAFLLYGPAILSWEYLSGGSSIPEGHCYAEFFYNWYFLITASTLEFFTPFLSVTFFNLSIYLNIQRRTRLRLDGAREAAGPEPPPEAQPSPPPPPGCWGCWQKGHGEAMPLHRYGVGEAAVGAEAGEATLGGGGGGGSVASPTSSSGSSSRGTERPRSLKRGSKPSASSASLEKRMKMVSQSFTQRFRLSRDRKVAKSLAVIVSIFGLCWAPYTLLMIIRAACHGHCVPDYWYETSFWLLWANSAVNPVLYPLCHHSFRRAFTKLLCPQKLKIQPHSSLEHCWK
3',5'-cyclic-AMP phosphodiesterase 4D, sequence (Q08499 whole entry): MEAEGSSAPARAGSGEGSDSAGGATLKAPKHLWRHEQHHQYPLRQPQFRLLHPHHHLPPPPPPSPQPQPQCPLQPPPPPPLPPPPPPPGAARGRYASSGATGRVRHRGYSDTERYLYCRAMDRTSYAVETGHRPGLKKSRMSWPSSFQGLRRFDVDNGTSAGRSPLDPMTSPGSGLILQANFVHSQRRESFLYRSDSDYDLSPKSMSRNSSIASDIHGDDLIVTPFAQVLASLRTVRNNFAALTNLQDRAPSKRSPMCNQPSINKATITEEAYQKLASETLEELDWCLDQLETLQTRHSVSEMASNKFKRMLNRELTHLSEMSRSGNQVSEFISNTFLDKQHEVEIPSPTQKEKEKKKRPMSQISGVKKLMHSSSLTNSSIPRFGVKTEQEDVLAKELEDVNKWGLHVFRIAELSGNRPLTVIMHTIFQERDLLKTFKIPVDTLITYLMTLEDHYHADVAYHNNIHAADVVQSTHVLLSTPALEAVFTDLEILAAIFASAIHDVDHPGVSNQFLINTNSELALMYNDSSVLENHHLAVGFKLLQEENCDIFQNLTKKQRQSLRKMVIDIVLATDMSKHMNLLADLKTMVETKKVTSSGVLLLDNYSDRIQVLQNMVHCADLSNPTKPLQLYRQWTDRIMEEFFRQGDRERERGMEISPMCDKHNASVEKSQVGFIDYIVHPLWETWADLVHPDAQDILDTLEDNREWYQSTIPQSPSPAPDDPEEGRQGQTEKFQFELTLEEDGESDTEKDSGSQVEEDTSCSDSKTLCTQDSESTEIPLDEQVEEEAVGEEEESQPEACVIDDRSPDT
5-hydroxytryptamine receptor 2B, sequence (P41595 whole entry): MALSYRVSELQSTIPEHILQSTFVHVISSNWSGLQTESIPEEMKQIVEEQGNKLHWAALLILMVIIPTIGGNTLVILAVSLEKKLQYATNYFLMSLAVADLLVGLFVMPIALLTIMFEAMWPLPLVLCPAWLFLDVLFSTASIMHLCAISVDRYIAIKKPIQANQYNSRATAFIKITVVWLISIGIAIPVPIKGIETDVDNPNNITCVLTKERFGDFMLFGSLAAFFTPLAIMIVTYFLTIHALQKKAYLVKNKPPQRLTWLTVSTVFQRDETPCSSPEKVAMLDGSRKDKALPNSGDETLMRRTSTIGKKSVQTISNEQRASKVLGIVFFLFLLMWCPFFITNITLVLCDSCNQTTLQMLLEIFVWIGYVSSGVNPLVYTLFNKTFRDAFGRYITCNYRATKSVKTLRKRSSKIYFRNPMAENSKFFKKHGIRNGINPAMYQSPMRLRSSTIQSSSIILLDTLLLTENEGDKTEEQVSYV

Regarding `C[C@@H](NCCCc1cccc(C(F)(F)F)c1)c1cccc2ccccc12`, the AC50 in test [1], in test [2], in test [3] and in test [4] was over 30 µM throughout.

Take `COc1ccc(CC2c3cc(OC)c(OC)cc3CC[N+]2(C)CCC(=O)OCCCCCOC(=O)CC[N+]2(C)CCc3cc(OC)c(OC)cc3C2Cc2ccc(OC)c(OC)c2)cc1OC` (centres undefined): the concentration at half-maximal activity (AC50) in test [1] is over 30 µM; in test [5], over 30 µM; in test [2], over 30 µM; in test [3] it was over 30 µM; in test [4], 3.6 µM.

On to `CCN1CCN(Cc2ccc(Nc3ncc(F)c(-c4cc(F)c5nc(C)n(C(C)C)c5c4)n3)nc2)CC1` [ABEMACICLIB], for which the AC50 was 0.31 µM in test [1]; over 30 µM in test [6]; 19 µM in test [5]; 3.2 µM in test [2]; over 30 µM in test [3]; over 30 µM in test [4].

Regarding `COc1ccccc1Oc1c(NS(=O)(=O)c2ccc(C(C)(C)C)cc2)nc(-c2ncccn2)nc1OCCO` [BOSENTAN], the AC50 in test [1] was over 10 µM; in test [6], over 10 µM; in test [5], over 10 µM; in test [2] it was over 30 µM; in test [3], over 30 µM; in test [4], over 10 µM.

As for `CC(C(=O)O)c1ccc2c(c1)[nH]c1ccc(Cl)cc12` (centres undefined) [CARPROFEN], the AC50 was over 30 µM in test [1]; over 10 µM in test [6]; over 10 µM in test [5]; 5.2 µM in test [2]; over 30 µM in test [3]; over 10 µM in test [4].

`COc1ccccc1OCCNCC(O)COc1cccc2[nH]c3ccccc3c12` (centres undefined) [CARVEDILOL]: the AC50 in test [1] was over 30 µM; in test [5], 0.532 µM; in test [2], over 10 µM; in test [3] it was over 30 µM; in test [4] it was 3.09 µM.

Take `O=C1CCc2cc(OCCCCc3nnnn3C3CCCCC3)ccc2N1` [CILOSTAZOL]: the AC50 in test [1] was over 30 µM; in test [5] it was over 30 µM; in test [2] it was 23.4 µM; in test [3], over 30 µM; in test [4], over 30 µM.

Regarding `C[C@@H](Oc1cc(-c2cnn(C3CCNCC3)c2)cnc1N)c1c(Cl)ccc(F)c1Cl` [CRIZOTINIB], the AC50 is over 10 µM in test [6]; 2.7 µM in test [5]; 4.8 µM in test [2]; over 30 µM in test [3]; 15 µM in test [4].

Regarding `O=C1CN(/N=C/c2ccc(-c3ccc([N+](=O)[O-])cc3)o2)C(O)=N1` [DANTROLENE], the AC50 is over 10 µM in test [6]; over 10 µM in test [5]; over 30 µM in test [2]; over 10 µM in test [3]; over 10 µM in test [4].

Turning to `CN(C)CC[C@@H](c1ccc(Cl)cc1)c1ccccn1` [DEXCHLORPHENIRAMINE], the AC50 in test [1] is 6.3 µM; in test [6] it was 22 µM; in test [5], over 30 µM; in test [2], over 10 µM; in test [3], over 30 µM; in test [4], over 30 µM.

Take `CC(C)N(CCC(C(N)=O)(c1ccccc1)c1ccccn1)C(C)C` (centres undefined) [DISOPYRAMIDE]: the AC50 in test [1] was over 30 µM; in test [6], over 10 µM; in test [5], over 10 µM; in test [2], over 10 µM; in test [3], over 30 µM; in test [4], over 10 µM.

In the case of `C[C@H]1c2cccc(O)c2C(=O)C2=C(O)[C@]3(O)C(=O)C(C(N)=O)=C(O)[C@@H](N(C)C)[C@@H]3[C@@H](O)[C@@H]21` [DOXYCYCLINE], the AC50 in test [1] was over 10 µM; in test [6], over 10 µM; in test [5] it was over 10 µM; in test [2], over 30 µM; in test [3], over 30 µM; in test [4] it was over 10 µM.

Turning to `C[C@]12C=CC(=O)N[C@@H]1CC[C@@H]1[C@@H]2CC[C@]2(C)[C@@H](C(=O)Nc3cc(C(F)(F)F)ccc3C(F)(F)F)CC[C@@H]12` [DUTASTERIDE], the AC50 in test [6] is over 10 µM; in test [5], over 10 µM; in test [2], over 30 µM; in test [3], over 10 µM; in test [4], over 10 µM.

On to `CN1C[C@H](C(=O)N[C@]2(C)O[C@@]3(O)[C@@H]4CCCN4C(=O)[C@H](Cc4ccccc4)N3C2=O)C=C2c3cccc4[nH]cc(c34)C[C@H]21` [ERGOTAMINE], for which the AC50 in test [1] was over 30 µM; in test [2], over 30 µM; in test [3] it was over 30 µM; in test [4], 0.3 µM.

As to `CN(C)CCC[C@@]1(c2ccc(F)cc2)OCc2cc(C#N)ccc21` [ESCITALOPRAM], the AC50 was over 30 µM in test [1]; over 30 µM in test [6]; 22 µM in test [5]; over 30 µM in test [2]; over 30 µM in test [3]; over 30 µM in test [4].

On to `C#C[C@]1(O)CC[C@H]2[C@@H]3CCC4=CC(=O)CC[C@@H]4[C@H]3C(=C)C[C@@]21CC` [ETONOGESTREL], for which the AC50 in test [6], in test [5], in test [2] and in test [4] was over 30 µM in each case.

For `CN(CC1(C)CCCO1)S(=O)(=O)c1ccc(Cl)c(S(N)(=O)=O)c1` (centres undefined) [MEFRUSIDE], the AC50 in test [6], in test [5], in test [2] and in test [4] was over 30 µM throughout.

As for `CN1C(C(=O)Nc2ccccn2)=C(O)c2ccccc2S1(=O)=O` [PIROXICAM], the AC50 in test [6] was over 10 µM; in test [5], over 10 µM; in test [2], over 30 µM; in test [3], over 10 µM; in test [4] it was over 10 µM.

Regarding `C=C[C@H]1C[N@@]2CC[C@H]1C[C@@H]2[C@@H](O)c1ccnc2ccc(OC)cc12` [QUINIDINE], the AC50 in test [1] is over 10 µM; in test [2], over 30 µM; in test [3], over 30 µM; in test [4], 12 µM.

Take `CC(N)C12CC3CC(CC(C3)C1)C2` (centres undefined) [RIMANTADINE]: the AC50 in test [6] was over 10 µM; in test [5] it was over 10 µM; in test [2], over 30 µM; in test [3], over 10 µM; in test [4], over 10 µM.

With `CN(C)CCc1c[nH]c2ccc(Cn3cncn3)cc12` [RIZATRIPTAN], the AC50 was over 10 µM in test [1]; over 10 µM in test [5]; over 30 µM in test [2]; over 30 µM in test [3]; over 30 µM in test [4].

Take `O=C1C(CC[S+]([O-])c2ccccc2)C(=O)N(c2ccccc2)N1c1ccccc1` (centres undefined) [SULFINPYRAZONE]: the AC50 in test [6] was over 10 µM; in test [5] it was over 30 µM; in test [2] it was over 30 µM; in test [3], over 10 µM; in test [4], over 30 µM.

Regarding `CCN(CC)CCNC(=O)c1c(C)[nH]c(/C=C2\C(=O)Nc3ccc(F)cc32)c1C` [SUNITINIB], the AC50 was found to be 0.88 µM in test [1]; 5.2 µM in test [5]; 9.8 µM in test [2]; 6.7 µM in test [3]; 24 µM in test [4].

`CC(C)(C)NCC(O)c1cc(O)cc(O)c1` (centres undefined) [TERBUTALINE]: the AC50 in test [1] and in test [3] was over 30 µM each time.

The record behind these values is ChEMBL document CHEMBL5291721, “A preclinical secondary pharmacology resource illuminates target-adverse drug reaction associations of marketed drugs” (Nat Commun, 2023).
